From paper PMC9694965, “Design of 4-Substituted Sulfonamidobenzoic Acid Derivatives Targeting Coxsackievirus B3” (Life, 2022)

How the values were obtained:
[1] = tested on: CVB3 Nancy; experiment: Cytoprotection assay (MTT) in Vero cells infected with CVB3 Nancy; assay type: cell-based, Coxsackievirus B3; settings: for EC50: Enterovirus B, Vero cells infected with CVB3 Nancy at m.o.i. 0.001, 72 h, MTT, read-out: EC50 (50% cytoprotective concentration); for SI (selectivity index, ratio CC50/IC50): cytoprotection assay, CC50 72 h / EC50
Experimental: (§1) Vero cells were seeded in 96-well plates in 24 h before the assay. On the assay day, the cells were washed with saline and tested compounds in appropriate concentrations (300–3 μg/mL) in MEM without FBS were added to cells. No compounds were added to virus control wells. The plates were incubated for 1 h at 37 °C at 5% CO2. The cells were then infected with CVB3 Nancy (m.o.i range of 1–0.001) and incubated for 72 h at 37 °C at 5% CO2. No virus was added to the cytotoxicity control wells. Cell viability was then assessed using an MTT test with the following procedure. The cells were washed with saline, and a solution of 3-(4,5-dimethylthiazolyl-2) 2,5-diphenyltetrazolium bromide (ICN Biochemicals Inc., Aurora, OH, USA) ([…]) in MEM was added to the wells (100 µL per well). After 2 h of incubation at 37 °C in 5% CO2, the supernatant from wells was discarded, and the formazan residue was dissolved in DMSO (100 µL per well). The optical density of cells was then measured on a Multiskan multifunctional reader (Thermo Fisher Scientific, Shanghai, China) at a wavelength of 540 nm.
The cytoprotective activity of compounds was considered to be their ability to increase the values of OD compared to control wells (using only a virus, without drugs). Based on the results obtained, the values of IC50, i.e., the concentration of compounds that result in 50% cells protection were calculated for m.o.i. 0.001 using GraphPad Prism 6.01 software.

[2] = Cytotoxicity assay (MTT) in Vero cells; assay type: cell-based; settings: African green monkey; for CC50 at 24 h: 24 h incubation with the compound only; for CC50 at 72 h: 72 h incubation with the compound only
Experimental: as §1
(§2) The microtetrazolium test (MTT) was used to study the cytotoxicity of the compounds. The permissive cell line Vero was seeded in 96-well plates in Eagles minimal essential medium (MEM) supplemented with 10% FBS. After 24 h, the media were removed, and the wells were washed with saline. Compounds were dissolved in DMSO, and a series of two-fold dilutions of each compound in MEM without FBS were prepared and added to the cells in triplicates. […] The MTT was then performed as described above. Next, the optical density of cells was measured on a Multiskan multifunctional reader (Thermo Fisher Scientific, Shanghai, China) at a wavelength of 540 nm and plotted against the concentration of the compounds to generate the dose–response curve. The 50% cytotoxic dose (CC50) of each compound (i.e., the compound concentration that causes the death of 50% of cells in a culture, or decreases the optical density twice, as compared to the control wells) was calculated using a four-parameter logistic nonlinear regression model (GraphPad Prism 6.01).

[3] = tested on: Vero cells; experiment: Cytotoxicity assay (MTT) in Vero cells; assay type: cell-based; settings: incubation with the compound only
Experimental: as §1, §2

[4] = tested on: Coxsackievirus B3 (Nancy); experiment: Viral yield reduction assay in Vero cells; assay type: cell-based; settings: for IC50: Enterovirus B, B3 / CVB3, viral yield reduction, Vero cells, CVB3 Nancy at m.o.i. 0.01, 24 h, read-out: IC50 (50% virus-inhibiting concentration); for SI (selectivity index, ratio CC50/IC50): viral yield reduction assay, CC50 24 h / IC50
Experimental: Coxsackievirus B3 (CVB3, strain Nancy) was obtained from the collection of viruses of the Pasteur Institute (St. Petersburg, Russia). The permissive cell line Vero (ATCC #CCL-81) was used in the study. Infectious titers (in a 50%-tissue culture infection dose, TCID50) were determined in Vero cells for CVB3 by endpoint dilution assay using the following procedure. Permissive cells were seeded into 96-wells plates in Eagles minimal essential medium (MEM) supplemented with 5% fetal bovine serum (FBS). After 24 h, the medium was aspirated, the wells were washed with saline, fresh MEM without FBS was added to the wells and the cells were infected with serial tenfold dilutions of virus stocks (100 µL per well, 4 wells for each dilution). The plates were incubated at +37 °C in 5% CO2 and observed daily for cytopathic effect (CPE). After 72 h the viral titer was calculated in TCID50 using the method of Spearmen-Carber.
The antiviral activity of the compounds was evaluated using viral yield reduction assay. The respective permissive cell line Vero was seeded in MEM supplemented with 5% FBS in 24-well plates. When the cell confluence reached 100%, the compounds tested were dissolved in DMSO, and a series of three-fold dilutions of each compound in MEM without FBS was added to the cells, and incubated at 37 °C in 5% CO2. After 1 h, the media were discarded; equal volumes of fresh serial dilutions of each compound and viral suspension in MEM without FBS at […] were added. In control wells, only MEM without FBS was added. No compounds were added in the virus control wells. The plates were incubated at 4 °C for 1 h. The unbound virus was then washed away and, again, three-fold dilutions of each compound (the final concentration 50–0.6 µg/mL) in MEM without FBS were added to the wells. After 24 h of incubation at 37 °C in 5% CO2, the infectious titer of viral progeny (in TCID50) for each compound concentration, cell control, and virus control wells were determined in permissive cell lines by endpoint dilution assay as described above.
The titer of virus progeny was plotted against log concentration of the compounds tested to generate the dose–response curve. The 50% inhibition concentration (IC50) of each compound tested (i.e., the compound concentration that decreases the infectious viral progeny titer twice, as compared to the control wells) was calculated using a four-parameter logistic nonlinear regression model (GraphPad Prism 6.01).

[5] = tested on: CVB3 Nancy; experiment: Thermostability assay (capsid binding, heat inactivation of virus); parameters: species or system Coxsackievirus B3; settings: pre-incubation 30 min at 37 °C, thermal gradient 37-55 °C for 2 min; for Effect on heat inactivation of CVB3 (capsid stabilization): versus virus control
Experimental: CVB3 Nancy was pre-incubated with the compounds tested or an equal volume of MEM (virus control) for 30 min at +37 °C in sterile thin-walled 200 μL PCR-tubes (7 tubes per each treatment condition) in BioRad CFX PCR-machine. The thermal gradient of 37–55 °C for 2 min was then applied, followed by rapid cooling to 4 °C. Subsequently, the infectious virus load at each thermal condition for each compound tested was quantified by end-point dilution assay.

| SMILES | EC50 [1] | SI (selectivity index, ratio CC50/IC50) [1] | CC50 at 24 h [2] | CC50 at 72 h [2] | CC50 [3] | IC50 [4] | SI (selectivity index, ratio CC50/IC50) [4] | Effect on heat inactivation of CVB3 (capsid stabilization) [5] | melting point | Temperature to which infectivity of CVB3 was preserved ([5]; concentrations greatly exceeding IC50) |
| --- | --- | --- | --- | --- | --- | --- | --- | --- | --- | --- |
| O=C(O)c1ccc(NS(=O)(=O)c2ccc(N3C(=O)c4ccccc4C3=O)cc2)cc1 [Compound 2a, 4-(4-(1,3-Dioxoisoindolin-2-yl)phenylsulfonamido)benzoic acid, reference compound] | < 8.76 µM | >81.1 | > 1180 µM | > 710 µM | exceeded the maximum concentration used in the assay | 5.54 ± 0.89 µM | >213 | heat inactivation of CVB3 changed to higher temperatures | – | – |
| CCOC(=O)c1ccc(NS(=O)(=O)c2ccc(N3C(=O)c4ccccc4C3=O)cc2)cc1 [Compound 2b, Ethyl 4-(4-(1,3-dioxoisoindolin-2-yl)phenylsulfonamido)benzoate] | > 444 µM | <1 | – | 40 ± 4.12 µM | – | – | – | – | – | – |
| NC(=O)c1ccc(NS(=O)(=O)c2ccc(N3C(=O)c4ccccc4C3=O)cc2)cc1 [Compound 2c, 4-(4-(1,3-Dioxoisoindolin-2-yl)phenylsulfonamido)benzamide] | > 475 µM | <1 | – | 472 ± 38.2 µM | – | – | – | – | 240 to 242 °C | – |
| N#Cc1ccc(NS(=O)(=O)c2ccc(N3C(=O)c4ccccc4C3=O)cc2)cc1 [Compound 2d, N-(4-Cyanophenyl)-4-(1,3-dioxoisoindolin-2-yl)benzenesulfonamide] | 744 ± 67.3 µM | <1 | – | 625 ± 57.5 µM | – | – | – | – | 224 to 226 °C | – |
| NS(=O)(=O)c1ccc(NS(=O)(=O)c2ccc(N3C(=O)c4ccccc4C3=O)cc2)cc1 [Compound 2e, 4-(1,3-Dioxoisoindolin-2-yl)-N-(4-sulfamoylphenyl)benzenesulfonamide] | > 437 µM | <1 | – | 437 ± 35.1 µM | – | – | – | – | 261 to 263 °C | – |
| CC(=O)Nc1ccc(NS(=O)(=O)c2ccc(N3C(=O)c4ccccc4C3=O)cc2)cc1 [Compound 2f] | > 689 µM | <1 | – | 181 ± 19.2 µM | – | – | – | – | 220 to 222 °C | – |
| O=C(O)C1CCN(S(=O)(=O)c2ccc(N3C(=O)c4ccccc4C3=O)cc2)CC1 [Compound 2g, 1-((4-(1,3-Dioxoisoindolin-2-yl)phenyl)sulfonyl)piperidine-4-carboxylic acid] | 12.3 ± 2.07 µM | >18.5 | – | > 228 µM | – | – | – | – | 207 to 210 °C | – |
| NC(=O)C1CCN(S(=O)(=O)c2ccc(N3C(=O)c4ccccc4C3=O)cc2)CC1 [Compound 2h, 1-((4-(1,3-Dioxoisoindolin-2-yl)phenyl)sulfonyl)piperidine-4-carboxamide] | > 726 µM | >1 | – | > 726 µM | exceeded the maximum concentration used in the assay | – | – | – | 217 to 220 °C | – |
| O=C(O)CCCNS(=O)(=O)c1ccc(N2C(=O)c3ccccc3C2=O)cc1 [Compound 2i, 4-(4-(1,3-Dioxoisoindolin-2-yl)phenylsulfonamido)butanoic acid] | < 28.6 µM | >10 | 1260 ± 110 µM | 283 ± 31.1 µM | – | 37.9 ± 1.08 µM | 33 | – | – | – |
| CCOC(=O)c1ccc(NS(=O)(=O)c2ccc(NC(=O)c3ccccc3C(=O)O)cc2)cc1 [Compound 3, 2-((4-(N-(4-(Ethoxycarbonyl)phenyl)sulfamoyl)phenyl)carbamoyl)benzoic acid] | > 427 µM | >1 | – | > 640 µM | – | – | – | – | – | – |
| O=C(O)c1ccc(NS(=O)(=O)c2ccc(N3C(=O)CCC3=O)cc2)cc1 [Compound 7a, 4-(4-(2,5-Dioxopyrrolidin-1-yl)phenylsulfonamido)benzoic acid] | < 9.88 µM | >34.8 | > 1340 µM | 345 ± 32.2 µM | – | 4.22 ± 0.35 µM | >316 | heat inactivation of CVB3 changed to higher temperatures | 243 to 245 °C (dec.) | 52.4 °C |
| O=C(O)c1ccc(NS(=O)(=O)c2ccc(N3C(=O)C4CC=CCC4C3=O)cc2)cc1 (stereo not shown) [Compound 7b, 4-(4-(1,3-Dioxo-3a,4,7,7a-tetrahydro-1H-isoindol-2(3H)-yl)phenylsulfonamido)benzoic acid] | < 8.67 µM | >54.6 | 933 ± 75.1 µM | 474 ± 38.5 µM | – | 11.1 ± 0.16 µM | – | – | 250 to 252 °C | – |
| O=C(O)c1ccc(NS(=O)(=O)c2ccc(N3C(=O)C4C5C=CC(C5)C4C3=O)cc2)cc1 (stereo not shown) [Compound 7c, 4-(4-(1,3-Dioxo-3a,4,7,7a-tetrahydro-1H-4,7-methanoisoindol-2(3H)-yl)phenylsulfonamido)benzoic acid] | < 8.44 µM | >81.1 | > 1140 µM | > 684 µM | exceeded the maximum concentration used in the assay | 19.6 ± 0.52 µM | >58 | – | 241 to 243 °C | – |
| O=C(O)c1ccc(NS(=O)(=O)c2ccc(N3C(=O)C4C5CCC(C5)C4C3=O)cc2)cc1 (stereo not shown) [Compound 7d, 4-(4-(1,3-Dioxohexahydro-1H-4,7-methanoisoindol-2(3H)-yl)phenylsulfonamido)benzoic acid] | < 8.39 µM | >81.1 | > 1140 µM | 681 ± 54.8 µM | – | 19.6 ± 0.49 µM | >58 | – | 265 to 267 °C | – |
| O=C(O)c1ccc(NS(=O)(=O)c2ccc(N3C(=O)c4cccc5cccc(c45)C3=O)cc2)cc1 [Compound 7e, 4-(4-(1,3-Dioxo-1H-benzo[de]isoquinolin-2(3H)-yl)phenylsulfonamido)benzoic acid] | > 635 µM | <1 | – | 531 ± 48.4 µM | – | – | – | – | 284 to 286 °C | – |
